Experimental data taken from patent US20240216357A1 (SICHUAN HUIYU PHARMACEUTICAL CO., LTD., priority 2021, published 2024).
Structures can show the parent of a compound that is named as a salt. Where two headings read alike, the source gives them in different places.

What was measured:
NCI-H1417 cells = test: In vitro cell proliferation detection (CellTiter-Glo, 7 days); format: cell-based
LSD1 = LSD1 (Homo sapiens (Human), UniProt O60341); test: LSD1 enzyme activity detection (HTRF); format: biochemical; conditions: read-out: Inhibition of enzymatic activity of LSD1 IC50
[1] = Homo sapiens, 168 h, NCI-H1417 cells, 7 days, CellTiter-Glo, read-out: NCI-H1417 proliferation inhibition IC50

SMILES	IC50 (NCI-H1417 cells; [1]) [nM]	IC50 (LSD1; HTRF, H3K4me1 substrate) [nM]	IC50 (NCI-H1417 cells; Homo sapiens, NCI-H1417, 168 h, read-out: NCI-H1417 proliferation inhibition IC50(nM)) [nM]	IC50 (LSD1) [nM]	IC50 (NCI-H1417 cells; read-out: NCI-H1417 proliferation inhibition IC50) [nM]
Cc1ccc(-c2c(-c3ccc(C#N)cc3)cc3c(N4CCC(N)C4)nccn23)cc1 (stereo not drawn) [Example 192, 4-(1-(3-aminopyrrolidin-1-yl)-6-(p-tolyl)pyrrolo [1,2-a]pyrazine-7-yl) benzonitrile hydrochloride]	81	10.6	–	–	–
Cc1noc2cc(-c3c(O)cc(N4C5CCC4CC(N)C5)nc3-c3ccc(C#N)c(F)c3)c(F)cc12 (stereo not drawn) [Example 24, 4-(6-(3-amino-8-azabicyclo[3.2.1]octane-8-yl)-3-(5-fluoro-3-methylbenzo[d]isoxazol-6-yl)-4-hydroxypyridin-2-yl)-2-fluorobenzonitrile]	252	21.5 ± 20.5	–	–	–
COc1ccc(-c2sc(C(=O)N3C4CCC3CC(N)C4)cc2-c2ccc(C#N)c(F)c2)cc1O (stereo not drawn) [Example 218, 4-(5-(3-amino-8-azabicyclo [3.2.1]octan-8-carbonyl)-2-(3-hydroxy-4-methoxy-phenyl)thiophen-3-yl)-2-fluorobenzonitrile]	0.88	0.15 ± 0.03	–	–	–
Cn1ccc2cc(F)c(-c3c(-c4ccc(C#N)c(F)c4)nc(N4C5CCC4CC(N)C5)n4ccnc34)cc21 (stereo not drawn) [Example 174, 4-(5-(3-amino-8-azabicyclo[3.2.1]octane-8-yl)-8-(5-fluoro-1-methyl-1H-indole-6-yl)imidazolo [1,2-c]pyrimidin-7-yl)-2-fluoro benzonitrile]	14.4	13.2	–	–	–
COc1ccc(-c2c(-c3ccc(C#N)cc3)nc(N3C4CCC3CC(N)C4)n3ccnc23)cc1F (stereo not drawn) [Example 178, 4-(5-(3-amino-8-azabicyclo [3.2.1]octane-8-yl)-8-(3-fluoro-4-methoxyphenyl)imidazolo[1,2-c]pyrimidin-7-yl) benzonitrile hydrochloride]	6.24	3.8 ± 2.2	–	–	–
CS(=O)(=O)N1CCN(C(=O)c2cc(CCN[C@@H]3C[C@H]3c3ccc(F)cc3)cc(-c3ccc(-n4cccn4)cc3)n2)CC1 [Example 256, (6-(4-(1H-pyrazol-1-yl)phenyl)-4-(2-(((1R,2S)-2-(4-fluorophenyl)cyclopropyl)amino)ethyl)pyridin-2-yl) (4-(methylsulfonyl)piperazin-1-yl)methanone]	10.8	71.3	–	–	–
N#Cc1ccc(-c2nc(N3C4CCC3CC(N)C4)n3ccnc3c2-c2cc3nc[nH]c3cc2F)cc1F (stereo not drawn) [Example 172, 4-(5-(3-amino-8-azabicyclo[3.2.1]octane-8-yl)-8-(6-fluoro-1H-benzo[d]imidazole-5-yl)imidazolo [1,2-c]pyrimidin-7-yl)-2-fluorobenzonitrile]	149	5 ± 4.1	–	–	–
COc1ccc(-c2c(-c3ccc(C#N)c(F)c3)nc(N(C)CCCN)n3ccnc23)cc1O [Example 144, 4-(5-((3-aminopropyl) (methyl)amino)-8-(3-hydroxy-4-methoxyphenyl)imidazolo[1,2-c]pyrimidin-7-yl)-2-fluorobenzonitrile]	18.2	1.6 ± 0.2	–	–	–
N#Cc1ccc(-c2nc(CCCN[C@@H]3C[C@H]3c3ccc(F)cc3)cc(C(=O)N3CCC(F)(F)CC3)n2)cc1 [Example 258, 4-(4-(4,4-difluoropiperidine-1-carbonyl)-6-(3-(((1R,2S)-2-(4-fluorophenyl)cyclopropyl)amino)propyl)pyrimidin-2-yl)benzonitrile hydrochloride]	89.7	232	–	–	–
N#Cc1ccc(-c2nc(N3C4CCC3CC(N)C4)n3ccnc3c2-c2cc3c(cc2F)CCN3)cc1F (stereo not drawn) [Example 171]	6	1.9 ± 1.5	–	–	–
Cc1ccc(-c2c(-c3ccc(C#N)cc3)cc3c(N4CCC[C@@H](N)C4)cccn23)cc1 [Example 10, (R)-4-(8-(3-aminopiperidin-1-yl)-3-(p-tolyl)indolizin-2-yl)benzonitrile hydrochloride]	–	–	371	79.1 ± 18.9	–
Cc1ccc(-c2c(-c3ccc(C#N)cc3)cc3c(N4CCN(C)CC4)nccn23)cc1 [Example 190, 4-(1-(4-methylpiperazin-1-yl)-6-(p-tolyl)pyrrolo [1,2-a]pyrazin-7-yl) benzonitrile]	1120	0.331	–	–	–
Cc1ccc(-c2c(-c3ccc(C#N)c(F)c3)nc(N3CCC(N)CC3)c3ccoc23)cc1O [Example 268, 4-(4-(4-aminopiperidin-1-yl)-7-(3-hydroxy-4-methylphenyl)furan[3,2-c]pyridin-6-yl)-2-fluorobe nzonitrile hydrochloride]	–	–	–	1.5 ± 0.5	0.378
Cc1ccc(-c2c(-c3ccc(C#N)c(F)c3)nc(N3CCC(C)(N)CC3)n3ccnc23)cc1O [Example 145, 4-(5-(4-amino-4-methylpiperidin-1-yl)-8-(3-hydroxy-4-methylphenyl)imidazolo[1,2-c]pyrimidin-7-yl)-2-fluorobenzonitrile]	2.42	1 ± 0.2	–	–	–
Cc1sc(C(=O)N2C3CCC2CC(N)C3)cc1-c1ccc(C#N)c(F)c1 (stereo not drawn) [Example 199, 4-(5-(3-amino-8-azadicyclo [3.2.1]octane-8-carbonyl)-2-methylthiophene-3-yl)-2-fluorobenzonitrile hydrochloride]	> 1000	72	–	–	–
O=C(NC1CCOCC1)c1cc(CN[C@@H]2C[C@H]2c2ccc(F)cc2)nc(-c2ccccc2)n1 [Example 237]	28.3	423 ± 23	–	–	–
COc1ccc(-c2nc(CN[C@@H]3C[C@H]3c3ccc(F)cc3)cc(C(=O)N3CCN(S(C)(=O)=O)CC3)n2)cc1F [Example 225]	27.8	52.1	–	–	–

Continued, in another order:

IC50 (NCI-H1417 cells; [1]) [nM]	IC50 (LSD1; HTRF, H3K4me1 substrate) [nM]	SMILES	IC50 (NCI-H1417 cells; Homo sapiens, NCI-H1417, 168 h, read-out: NCI-H1417 proliferation inhibition IC50(nM)) [nM]	IC50 (LSD1) [nM]	IC50 (NCI-H1417 cells; read-out: NCI-H1417 proliferation inhibition IC50) [nM]
1.1 ± 0.7	0.1 ± 0.01	COc1ccc(-c2c(C)nc(N3CCC(N)CC3)c(C#N)c2-c2ccc(C#N)c(F)c2)cc1O [Example 276, 2-(4-aminopiperidin-1-yl)-4-(4-cyano-3-fluorophenyl)-5-(3-hydroxy-4-methoxyphenyl)-6-meth ylpyridine-3-carbonitrile]	–	–	–
21.2	35.2	COc1ccc(-c2c(O)cc(N3CCC(N)CC3)nc2-c2ccc(C#N)c(F)c2)c(F)c1 [Example 36, 4-(6-(4-aminopiperidin-1-yl)-3-(2-fluoro-4-methoxyphenyl)-4-hydroxypyridin-2-yl)-2-fluorobenzonitrile hydrochloride]	–	–	–
72.4	12.9 ± 0.2	COc1ccc(-c2cnc(N3CC(N)C3)c(C#N)c2-c2ccc(C#N)c(F)c2)cc1O [Example 82, 2-(3-aminoazetidin-1-yl)-4-(4-cyano-3-fluorophenyl)-5-(3-hydroxy-4-methoxyphenyl) nicotinonitrile]	–	–	–
80.7	4.46 ± 0.09	N#Cc1ccc(-c2nc(N3CCC(N)CC3)n3ccnc3c2-c2ccn3ccnc3c2)cc1F [Example 131, 4-(5-(4-aminopiperidin-1-yl)-8-(imidazolo [1,2-a]pyridin-7-yl)imidazolo[1,2-c]pyrimidin-7-yl)-2-fluorobenzonitrile]	–	–	–
0.594	1.2 ± 0.7	COc1ccc(-c2c(OC(F)F)cc(N3CCC(N)CC3)nc2-c2ccc(C#N)c(F)c2)cc1O [Example 106, 4-(6-(4-aminopiperidin-1-yl)-4-(difluoromethoxy)-3-(3-hydroxy-4-methoxyphenyl)pyridin-2-yl)-2-fluorobenzonitrile]	–	–	–
47.6	28.7	N#Cc1ccc(-c2nc(N3CCC(N)CC3)n3ccnc3c2-c2ccc3[nH]nc(Cl)c3c2)cc1F [Example 123, 4-(5-(4-aminopiperidin-1-yl)-8-(3-chloro-1H-indazolo-5-yl)imidazolo[1,2-c]pyrimidin-7-yl)-2-fluorobenzonitrile]	–	–	–
> 1000	5.96	N#Cc1ccc(-c2nc(N3CCC(N)CC3)cc(O)c2-c2ccc3oc(=O)[nH]c3c2)cc1F [Example 19, 4-(6-(4-aminopiperidin-1-yl)-4-hydroxy-3-(2-oxo-2,3-dihydrobenzo[d]oxazol-5-yl)pyridin-2-yl)-2-fluorobenzonitrile hydrochloride]	–	–	–
228	61.4	COCCNC1CCN(c2cc(O)c(-c3ccc(OC)c(F)c3)c(-c3ccc(C#N)c(F)c3)n2)CC1 [Example 49, 2-fluoro-4-(3-(3-fluoro-4-methoxyphenyl)-4-hydroxy-6-(4-((2-methoxyethyl)amino)piperidin-1-yl)pyridin-2-yl)benzonitrile]	–	–	–
8.64	10.1	COc1ccc(-c2c(-c3ccc(C#N)c(F)c3)nc(N3CCC(N)CC3)c3nc[nH]c23)cc1F [Example 270, 4-(4-(4-aminopiperidin-1-yl)-7-(3-fluoro-4-methoxyphenyl)-1H-imidazolo[4,5-c]pyridin-6-yl)-2-fluorobenzonitrile hydrochloride]	–	–	–
96.4	2 ± 1.4	N#Cc1ccc(-c2nc(N3CCC(N)CC3)cc(O)c2-c2cc(O)c(F)c(F)c2)cc1F [Example 46, 4-(6-(4-aminopiperidin-1-yl)-3-(3,4-difluoro-5-hydroxyphenyl)-4-hydroxypyridin-2-yl)-2-fluorobenzonitrile]	–	–	–
4.88	2.9 ± 1.2	COc1ccc(-c2c(O)cc(N3CCC(N(C)C)CC3)nc2-c2ccc(C#N)c(F)c2)cc1F [Example 56, 4-(6-(4-(dimethylamino)piperidin-1-yl)-3-(3-fluoro-4-methoxyphenyl)-4-hydroxypyridin-2-yl)-2-fluorobenzonitrile]	–	–	–
1.82	1.1 ± 0.3	COc1cc(N2CCC(N)CC2)nc(-c2ccc(C#N)c(F)c2)c1-c1ccc(F)c(O)c1 [Example 91, 4-(6-(4-aminopiperidin-1-yl)-3-(4-fluoro-3-hydroxyphenyl)-4-methoxypyridin-2-yl)-2-fluorobenzonitrile]	–	–	–
8.35	2.5 ± 1.7	COc1ccc(-c2c(OCC3CCC3)cc(N3CCC(N)CC3)nc2-c2ccc(C#N)c(F)c2)cc1O [Example 107, 4-(6-(4-aminopiperidin-1-yl)-4-(cyclobutylmethoxy)-3-(3-hydroxy-4-methoxyphenyl)pyridin-2-yl)-2-fluorobenzonitrile hydrochloride]	–	–	–
